Source: US20090048310A1, “AGENT FOR PREVENTION/TREATMENT OF DISEASE CAUSED BY ACYCLOVIR-RESISTANT HERPESVIRUS” (ASTELLAS PHARMA INC., priority 2005, published 2009)
Read-outs that look alike come from different tables or passages of the source.

Tests used:
ACV-resistant HSV-1 = ACV-resistant HSV-1 infection lethal model in nude mice; type: in vivo, nude mouse (CD-1(ICR)-nu/nu); details: 100 mg/kg oral twice a day for 15 days; for death suppressing effect (in words): 17 days after infection
Method: ACV-resistant HSV-1 (3×10^6 pfu) was inoculated into the peritoneal cavity of each nude mouse (CD-1(ICR)-nu/nu, […], female, Charles River Japan) to cause infection with the virus. Each compound to be tested was made into a methyl cellulose suspension and orally administered at a dose of 100 mg/kg, twice a day for 15 days starting 1 hour after the infection (from 0 to 14 days after the infection).
During 17 days after the infection, death of the mice caused by ACV-resistant HSV-1 infection was observed every day, and the number of survived animals was counted.

[1] = test system: ACV-resistant VZV (Kanno-Br^ACV-R strain); test: Anti-ACV-resistant VZV activity assay (plaque reduction); type: cell-based, varicella zoster virus (VZV); details: Human alphaherpesvirus 3, HEF, read-out: EC50, concentration which inhibits 50% of the number of plaques (Example 1)
Method: This assay was carried out in reference to the method described by Shigeta S. in The Journal of Infectious Diseases, 147, 3, 576-584, (1983). Specifically, 10,000 cells of human embryonic fibroblast (HEF) were inoculated into a 96 well microtiter plate using a growth medium (Eagle MEM (Nissui) supplemented with 10% (v/v) fetal bovine serum (FBS, Sigma)) and cultured at 37° C. for 4 days under 5% CO2 until they became a monolayer. […] The plate was centrifuged at room temperature at 2000 rpm for 20 minutes and then incubated at 37° C. for 3 hours under 5% CO2 for infection with VZV. After washing three times with the maintenance medium 100 μl of each test drug diluted to an appropriate concentration with the maintenance medium was added to each well. After culturing the cells at 37° C. for 3 to 4 days under 5% CO2, 10% formalin/PBS was added thereto in 100 μl/well portions, and the cells were fixed for 2 to 3 hours. The fixing liquid and culture supernatant were discarded and the plate was washed with water, and then staining was carried out for 2 to 3 minutes by adding a staining liquid (0.025% Crystal Violet) in 50 μl/well portions, and the plate was washed with water and dried at 37° C. The HEF cells infected with VZV cause cell death, and plaques consisting of the dead cells are formed in the mono-layered HEF cells.

[2] = test system: ACV-resistant HSV-1 (A4-3^ACV-R strain); test: Anti-ACV-resistant HSV-1 activity assay (plaque reduction); type: cell-based
Method: A total of from 100,000 to 150,000 cells of an African green monkey kidney cell (Vero cell) were inoculated into a 24 well plate using a growth medium (Eagle MEM (Nissui) supplemented with 10% FBS) and cultured at 37° C. for 3 to 4 days under 5% CO2 until they became a monolayer. After washing the cells with a maintenance medium, ACV-resistant HSV-1 (A4-3^ACV-R strain) which had been diluted with the maintenance medium (Eagle MEM supplemented with 2% FBS) to a viral titer of from 100 to 250 pfu/200 μl was inoculated therein in 200 μl/well portions. The plate was centrifuged at room temperature at 1500 rpm for 40 minutes and then incubated at 37° C. for 1 hour under 5% CO2 for infection with HSV-1. After washing three times with the maintenance medium, 100 μl of each test drug diluted to an appropriate concentration with the maintenance medium was added to each well. After culturing the cells at 37° C. for 3 to 4 days under 5% CO2, 10% formalin/PBS was added thereto in 200 μl/well portions, and the cells were fixed for 2 to 3 hours. The fixing liquid and culture supernatant were discarded and the plate was washed with water, and then staining was carried out for 2 to 3 minutes by adding a staining liquid (0.025% Crystal Violet) in 100 μl/well portions, and the plate was washed with water and dried at 37° C. The Vero cells infected with HSV-1 cause cell death, and plaques consisting of the dead cells are formed in the mono-layered Vero cells.

HSV-1 strain WT-51 = test: Cutaneous HSV-1 infection mouse model; type: in vivo, HR-1 hairless mouse; details: oral, methyl cellulose suspension, 10 mg/kg twice a day for 5 days, scores for 17 days
Method: Using a cutaneous HSV-1 infection mouse model prepared in reference to the method of H. Machida et al. (Antiviral Res., 1992, 17, 133-143), the in vivo […] of the compounds of the present invention was tested using an animal model. The skin of each HR-1 hairless mouse [female, 7 weeks of age] was scratched lengthwise and breadthwise several times using a needle and a virus suspension (HSV-1 strain WT-51, 1.5×10^4 PFU/15 μl) was dropped to the scarified region for infection, while anesthetized with diethyl ether.
Tested compounds were administered orally as a methyl cellulose suspension, except for compounds marked with asterisk which were dissolved in 20% Cremophor EL (Nacalai Tesque)/20% polyethylene glycol (PEG) 400/60% H2O solution, starting at 3 hours after the infection, and then at a dose of 10 mg/kg twice a day for 5 days. The symptom of the skin lesion caused by HSV-1 infection were classified in the following scores for 17 days:
Score 0: no signs of infection.
Score 1: localized, barely perceptible small vesicles.
Score 2: slight vesicle spread.
Score 3: large patches of vesicles formed.
Score 4: zosteriform vesicles.
Score 5: large patches of ulcers formed.
Score 6: zosteriform with severe large ulcers.
Score 7: hind limb paralysis or death.
The AUC value was calculated from each group's mean disease score, and the disease inhibitory rate of the group administered with each test compound to the placebo group was calculated using the AUC.

[3] = Human alphaherpesvirus 1, Vero, read-out: EC50, concentration which inhibits 50% of the number of plaques (Example 2), ACV-resistant HSV-1 A4-3 ACV-R strain in Vero cells

SMILES	death suppressing effect (in words) (ACV-resistant HSV-1)	The number of survived animals (n = 10) (ACV-resistant HSV-1; day 0 after infection)	The number of survived animals (n = 10) (ACV-resistant HSV-1; day 1 after infection)	The number of survived animals (n = 10) (ACV-resistant HSV-1; day 2 after infection)	The number of survived animals (n = 10) (ACV-resistant HSV-1; day 4 after infection)	The number of survived animals (n = 10) (ACV-resistant HSV-1; day 5 after infection)	The number of survived animals (n = 10) (ACV-resistant HSV-1; day 6 after infection)	The number of survived animals (n = 10) (ACV-resistant HSV-1; day 7 after infection)	The number of survived animals (n = 10) (ACV-resistant HSV-1; day 8 after infection)	The number of survived animals (n = 10) (ACV-resistant HSV-1; day 9 after infection)	The number of survived animals (n = 10) (ACV-resistant HSV-1; day 10 after infection)	The number of survived animals (n = 10) (ACV-resistant HSV-1; day 11 after infection)	The number of survived animals (n = 10) (ACV-resistant HSV-1; day 12 after infection)	The number of survived animals (n = 10) (ACV-resistant HSV-1; day 14 after infection)	The number of survived animals (n = 10) (ACV-resistant HSV-1; day 16 after infection)	The number of survived animals (n = 10) (ACV-resistant HSV-1; day 17 after infection)	EC50 [1]	EC50 [2, 3]	Inhibition ratio (%) (disease inhibitory rate vs placebo from AUC of mean disease score) (HSV-1 strain WT-51)	further results
Cc1cccc(C)c1N(CC(=O)Nc1ccc(-c2ncon2)cc1)C(=O)C1CCS(=O)(=O)CC1 [Preparation 27, N-(2,6-dimethylphenyl)-N-(2-{[4-(1,2,4-oxadiazol-3-yl)phenyl]amino}-2-oxoethyl)tetrahydro-2H-thiopyran-4-carboxamide 1,1-dioxide]	completely suppressed death of the mice	10	10	10	10	10	10	10	10	10	10	10	10	10	10	10	82 nM	68 nM		
Cc1ccc(N(CC(=O)Nc2ccc(-c3cocn3)cc2)C(=O)C2CCS(=O)(=O)CC2)cc1 [Preparation 2, N-(4-methylphenyl)-N-(2-{[4-(1,3-oxazol-4-yl)phenyl]amino}-2-oxoethyl)tetrahydro-2H-thiopyran-4-carboxamide 1,1-dioxide]	completely suppressed death of the mice	10	10	10	10	10	10	10	10	10	10	10	10	10	10	10	35 nM	35 nM		
Nc1nc2c(ncn2COCCO)c(=O)[nH]1 [ACV, acyclovir]																		68000 nM		EC50 ([2]; read-out: EC50, concentration which inhibits 50% of the number of plaques (Example 2), ACV-resistant HSV-1 A4-3 ACV-R strain in Vero cells): 120000 nM
Cc1cccc(N(CC(=O)Nc2ccc(-c3cocn3)cc2)C(=O)C2CCS(=O)(=O)CC2)c1 [Preparation 3, N-(3-methylphenyl)-N-(2-{[4-(1,3-oxazol-4-yl)phenyl]amino}-2-oxoethyl)tetrahydro-2H-thiopyran-4-carboxamide 1,1-dioxide]																			70%	
Cc1ccc(N(CC(=O)Nc2ccc(-c3ncon3)cc2)C(=O)C2CCS(=O)(=O)CC2)cc1F [Preparation 35, N-(3-fluoro-4-methylphenyl)-N-(2-{[4-(1,2,4-oxadiazol-3-yl)phenyl]amino}-2-oxoethyl)tetrahydro-2H-thiopyran-4-carboxamide 1,1-dioxide]																			82%	
Cc1cc(N(CC(=O)Nc2ccc(-c3ncon3)cc2)C(=O)C2CCS(=O)(=O)CC2)ccc1Cl [Preparation 37, N-(4-chloro-3-methylphenyl)-N-(2-{[4-(1,2,4-oxadiazol-3-yl)phenyl]amino}-2-oxoethyl)tetrahydro-2H-thiopyran-4-carboxamide 1,1-dioxide]																			100%	
